Laboratory results: ChEMBL document CHEMBL4033625, “Novel organophosphorus scaffolds of urease inhibitors obtained by substitution of Morita-Baylis-Hillman adducts with phosphorus nucleophiles” (Eur J Med Chem, 2017)
The source made the active and inactive calls. No cut-off for these calls is given here.

Tests used:
[1] = Competitive inhibition of Sporosarcina pasteurii CCM 2056 urease using varying levels of urea as substrate pretreated for 60 mins followed by substrate addition after 10 mins by Lineweaver-Burk plot analysis
[2] = Inhibition of Proteus mirabilis urease
[3] = Competitive inhibition of Sporosarcina pasteurii CCM 2056 urease using varying levels of urea as substrate after 10 mins by Lineweaver-Burk plot analysis
[4] = Irreversible inhibition of Sporosarcina pasteurii CCM 2056 urease assessed as reduction in ammonia production using urea as substrate measured for 120 mins by Berthelot colorimetric assay
Sporosarcina pasteurii [5] = assay: Ratio of Kinact to Ki for Sporosarcina pasteurii CCM 2056 urease
[6] = Irreversible inhibition of Sporosarcina pasteurii CCM 2056 urease assessed as reduction in ammonia production using urea as substrate pretreated for 60 mins followed by substrate addition measured for 120 mins by Berthelot colorimetric assay
Sporosarcina pasteurii [7] = assay: Inhibition of Sporosarcina pasteurii CCM 2056 urease up to 2 mM using urea as substrate pretreated for 60 mins followed by substrate addition after 15 mins by phenol-hypochlorite reagent based colorimetric method
[8] = Inhibition of Sporosarcina pasteurii CCM 2056 urease using urea as substrate after 15 mins by phenol-hypochlorite reagent based colorimetric method
[9] = Inhibition of Sporosarcina pasteurii CCM 2056 urease using urea as substrate pretreated for 60 mins followed by substrate addition after 15 mins by phenol-hypochlorite reagent based colorimetric method
Sporosarcina pasteurii [10] = assay: Potency index, ratio of Methyl (Z)-2-{[hydrogen(hydroxy)phosphoryl]methyl}-3-phenylpropenoate Ki to compound Ki for competitive inhibition of Sporosarcina pasteurii CCM 2056 urease using varying levels of urea as substrate pretreated for 60 mins followed by substrate addition measured after 10 mins
[11] = Slow-binding inhibition of Sporosarcina pasteurii CCM 2056 urease using varying levels of urea as substrate after 120 mins by phenol-hypochlorite reagent based colorimetric method
[12] = Slow-binding inhibition of Sporosarcina pasteurii CCM 2056 urease using varying levels of urea as substrate pretreated for 60 mins followed by substrate addition after 120 mins by phenol-hypochlorite reagent based colorimetric method

| Compound | Ki [1] [µM] | Ki [3] [µM] | further results |
| --- | --- | --- | --- |
| Cc1ccc(/C=C(\CP(=O)(O)O)C(=O)O)cc1 | 0.594 | 0.674 | Ki [2]: 0.485 µM |
| COC(=O)/C(=C/c1ccc(OC)cc1)CP(=O)(O)O | 229 | 239 |  |
| COC(=O)/C(=C/c1ccc(F)cc1)CCP(=O)(O)O | 47.4 | 48.4 |  |
| O=C(O)/C(=C/c1ccc(Cl)cc1)CP(=O)(O)O | 16.2 | 19.6 |  |
| COC(=O)/C(=C/c1ccc(OC)cc1)CCP(=O)(O)O | 292 | 327 |  |
| C=C(C(=O)OC)C(OC(C)=O)c1ccc(C)cc1 (configuration not stated) |  |  | IC50 [4]: > 1000 µM; Ratio (Sporosarcina pasteurii [5]): 5.62 M⁻¹ s⁻¹; IC50 [6]: 331 µM |
| COC(=O)/C(=C/c1ccc(OC)cc1)C[PH](=O)O | 149 | 157 |  |
| COC(=O)/C(=C/c1ccc(Cl)cc1)CP(=O)(O)O | 81.2 | 88.9 |  |
| COC(=O)/C(=C/c1ccccc1)CP(=O)(O)CN |  |  | inhibition (Sporosarcina pasteurii [7]): inactive |
| COC(=O)/C(=C/c1ccccc1)CCP(=O)(O)O | 3.05 | 3.67 | IC50 [8]: 4.28 µM; Ki [2]: 1.52 µM; IC50 [9]: 4.18 µM |
| COC(=O)/C(=C/c1ccccc1)C[PH](=O)O | 97.5 | 177 | IC50 [8]: 201 µM; IC50 [9]: 104 µM |
| C=C(C(=O)OC)C(OC(C)=O)c1ccc([N+](=O)[O-])cc1 (configuration not stated) |  |  | IC50 [4]: 679 µM; Ratio (Sporosarcina pasteurii [5]): 2.34 M⁻¹ s⁻¹; IC50 [6]: 224 µM |
| COC(=O)/C(=C/c1ccccc1)CP(=O)(O)O |  |  | inhibition (Sporosarcina pasteurii [7]): inactive |
| COC(=O)/C(=C/c1ccccc1)CP(C)(=O)O |  |  | inhibition (Sporosarcina pasteurii [7]): inactive |
| O=C(O)/C(=C/c1ccccc1)CP(=O)(O)CO |  |  | inhibition (Sporosarcina pasteurii [7]): inactive |
| O=C(O)/C(=C/c1ccccc1)C[PH](=O)O | 117 | 208 | IC50 [8]: 344 µM; IC50 [9]: 234 µM |
| C=C(C(=O)OC)C(OC(C)=O)c1ccc(NC(C)=O)cc1 (configuration not stated) |  |  | IC50 [4]: > 1000 µM; Ratio (Sporosarcina pasteurii [5]): 2.78 M⁻¹ s⁻¹; IC50 [6]: 302 µM |
| Cc1ccc(/C=C(\C[PH](=O)O)C(=O)O)cc1 | 23.4 |  |  |
| O=C(O)/C(=C/c1ccccc1)CP(=O)(O)O | 13 to 13.1 | 16.1 | IC50 [8]: 44.5 µM; IC50 [9]: 27.8 µM |
| C=C(C(=O)OC)C(OC(C)=O)c1ccccc1 (configuration not stated) |  |  | IC50 [4]: > 1000 µM; Ratio (Sporosarcina pasteurii [5]): < 1 M⁻¹ s⁻¹; IC50 [6]: 870 µM |
| COC(=O)/C(=C/c1ccc(NC(C)=O)cc1)CP(=O)(O)O | 386 | 404 |  |

| Compound | Ki [1] [µM] | Ki [3] [µM] | further results |
| --- | --- | --- | --- |
| COC(=O)/C(=C/c1ccc(Cl)cc1)C[PH](=O)O | 16.7 | 24 | Ratio Ki (Sporosarcina pasteurii [10]): 5 to 7 |
| O=C(O)/C(=C/c1ccc(F)cc1)CP(=O)(O)O | 9.79 | 13.4 |  |
| COC(=O)/C(=C/c1ccc(F)cc1)C[PH](=O)O | 14.5 | 17.9 | Ratio Ki (Sporosarcina pasteurii [10]): 5 to 7 |
| C=C(C(=O)OC)C(OC(C)=O)c1ccc(OC)cc1 (configuration not stated) |  |  | IC50 [4]: > 2000 µM; Ratio (Sporosarcina pasteurii [5]): < 1 M⁻¹ s⁻¹; IC50 [6]: 1240 µM |
| COC(=O)/C(=C/c1ccc(C)cc1)C[PH](=O)O | 23.4 | 41.6 | Ratio Ki (Sporosarcina pasteurii [10]): 5 to 7 |
| Cc1ccc(CC(CP(=O)(O)O)C(=O)O)cc1 (configuration not stated) | 90.2 | 88 |  |
| C=C(C(=O)OC)C(OC(C)=O)c1ccc(F)cc1 (configuration not stated) |  |  | IC50 [4]: 64.2 µM; Ratio (Sporosarcina pasteurii [5]): 525 M⁻¹ s⁻¹; IC50 [6]: 4.15 µM |
| COC(=O)/C(=C/c1ccc(NC(C)=O)cc1)C[PH](=O)O | 13.4 | 20.6 | Ratio Ki (Sporosarcina pasteurii [10]): 5 to 7 |
| COC(=O)/C(=C/c1ccccc1)CP(=O)(O)CO | 293 | 327 | IC50 [8]: 465 µM; IC50 [9]: 309 µM |
| COc1ccc(/C=C(\CP(=O)(O)O)C(=O)O)cc1 | 34.4 | 28.9 |  |
| CP(=O)(O)C/C(=C\c1ccccc1)C(=O)O |  |  | inhibition (Sporosarcina pasteurii [7]): inactive |
| O=C(O)/C(=C/c1ccccc1)CCP(=O)(O)O | 66.7 | 55.6 | IC50 [8]: 83.4 µM; IC50 [9]: 48.4 µM |
| O=C(O)/C(=C/c1ccc([N+](=O)[O-])cc1)CCP(=O)(O)O |  |  | Ki [11]: 59.9 µM; Ki [12]: 433 µM |
| Cc1ccc(/C=C(\CCP(=O)(O)O)C(=O)O)cc1 | 66.7 |  |  |
| COC(=O)/C(=C/c1ccc([N+](=O)[O-])cc1)CCP(=O)(O)O |  |  | Ki [11]: 54.1 µM; Ki [12]: 362 µM |
| C=C(C(=O)OC)C(OC(C)=O)c1ccc(Cl)cc1 (configuration not stated) |  |  | IC50 [4]: 53.2 µM; Ratio (Sporosarcina pasteurii [5]): 75.3 M⁻¹ s⁻¹; IC50 [6]: 17.7 µM |
| COC(=O)/C(=C/c1ccc(F)cc1)CP(=O)(O)O | 62.9 | 73.2 |  |
| COC(=O)/C(=C/c1ccc(C)cc1)CP(=O)(O)O | 20.7 | 21.4 |  |
| O=C(O)/C(=C/c1ccc(F)cc1)CCP(=O)(O)O | 27.9 | 32.3 |  |
| NCP(=O)(O)C/C(=C\c1ccccc1)C(=O)O | 1320 | 1420 | IC50 [8]: 1510 µM; IC50 [9]: 1340 µM |
